Assay results as given in patent publication US9808456B2, “Piperazine thiazole derivatives useful in the treatment of tauopathies such as Alzheimer's disease” (REMYND NV, priority 2011, dated 2017).

Tested on: M17_3TAU(P301L) cells
Assay: Neuroblastoma tauopathy model: inhibition of TAU-induced cytotoxicity (LDH) after retinoic acid differentiation
Type: cell-based
Conditions: Homo sapiens, 168 h, inhibition of TAU-induced toxicity, 7 days retinoic acid, LDH readout
Description: A TAU expression plasmid was constructed by sub-cloning the cDNA encoding for human TAU-P301L protein, wherein proline at position 301 is substituted by a leucine residue, into mammalian expression vector pcDNA3.1 resulting in the plasmid pcDNA3.1-TAUP301L. Plasmids pcDNA3.1 and pcDNA3.1-TAU P301L were transfected into human neuroblastoma cells (BE-M17; ATCC No. CRL2267™) using lipofectamine reagent and subsequently, independent clonal cell lines with the plasmids stably integrated into the genome were selected by antibiotic resistance selection (Geneticin (G418)), resulting in cell lines M17.pcDNA3 and M17_3TAUP301L. Expression of the TAUP301L gene in the M17_3TAUP301L cells was confirmed by Western blot analysis.
Differentiation of the cells with RA leads to phosphorylation and subsequent aggregation of TAU, inducing a tauopathy in these cells. Cytotoxicity of cells was measured by quantification of lactate dehydrogenase (LDH) levels. In dead cells LDH is leaked out of the cells into the medium due to a loss of plasma-membrane integrity.
Briefly, 3 days preceeding the experiment pre-cultures of M17.pcDNA3 and M17_3TAU(P301L) cells were prepared, starting from a stock culture, at a density of 50.000-100.000 cells/cm2 in detection medium (Optimem Reduced Serum without phenol red (Gibco, Cat. 31985-047) supplemented with 1% fetal calf serum (FCS), 1 mM sodium pyruvate, 1× non-essential amino acids (NEAR), 500 μg/ml G418 and 0.5× antibiotic/antimycotic (ABAM)). At the day of the experiment these precultures were diluted to ˜0, 1.106 cells/ml in detection medium without FCS and 60 μL of this suspension is dispensed per well into a 96-well microtiter plate. After 3 hours of incubation at 37° C./5% CO2 an equal volume of detection medium containing 2.5 μM RA was added and subsequently incubated for 7 days at 37° C./5% CO2. After 7 days, LDH activity was determined using the Promega Cytotox 96 Non-Radioactive cytotoxicity assay (Cat. G1780), according the manufacturer's instructions. Cytotoxicity is measured as the ratio of LDH increase in the supernatant divided by the LDH increase in the total cell suspension (sum of the LDH measured in cells and supernatant).
The M17_3TAU(P301L) cell line makes it possible to assess the ability of novel compounds to inhibit TAU-induced cytotoxicity. […] Compounds were tested for their ability to hamper TAU-induced toxicity at different concentrations, ranging from low non-effective concentrations to high potent concentrations. Afterwards, the dose-dependent inhibition curve was used to calculate their EC50 (Table III).

SMILES | EC50 [nM]
COc1cc(CCN2CCN(c3nc(C4CCOCC4)ns3)CC2)ccn1 [Example 29, 1-[2-(2-Methoxy-pyridin-4-yl)-ethyl]-4-[3-(tetrahydro-pyran-4-yl)-[1,2,4]thiadiazol-5-yl]-piperazine] | 203
Fc1ccc(CCN2CCN(c3nc(C4CCOCC4)ns3)CC2)cc1 [Example 27, 1-[2-(4-Fluoro-phenyl)-ethyl]-4-[3-(tetrahydro-pyran-4-yl)-[1,2,4]thiadiazol-5-yl]-piperazine] | 309
FC1(F)CCN(c2nsc(N3CCN(CCc4ccc(Cl)cc4)CC3)n2)C1 [Example 3, 1-[2-(4-Chloro-phenyl)-ethyl]-4-[3-(3,3-difluoro-pyrrolidin-1-yl)-[1,2,4]thiadiazol-5-yl]-piperazine] | 8.8
Fc1ccc(CCN2CCN(c3nc(N4CCC(F)(F)C4)ns3)CC2)cc1F [Example 11, 1-[2-(3,4-Difluoro-phenyl)-ethyl]-4-[3-(3,3-difluoro-pyrrolidin-1-yl)-[1,2,4]thiadiazol-5-yl]-piperazine] | 11.4
Clc1ccc(CCN2CCN(c3nc(NC4CCOCC4)ns3)CC2)cc1 [Example 8, (5-{4-[2-(4-Chloro-phenyl)-ethyl]-piperazin-1-yl}-[1,2,4]thiadiazol-3-yl)-(tetrahydro-pyran-4-yl)-amine] | 52.2
COc1ccc(CCN2CCN(c3nc(C4CCCCC4)ns3)CC2)cc1 [Example 21, 1-(3-Cyclohexyl-[1,2,4]thiadiazol-5-yl)-4-[2-(4-methoxy-phenyl)-ethyl]-piperazine] | 2.2
Fc1ccc(CCN2CCN(c3nc(NC4CCOCC4)ns3)CC2)cc1F [Example 16, (5-{4-[2-(3,4-Difluoro-phenyl)-ethyl]-piperazin-1-yl}-[1,2,4]thiadiazol-3-yl)-(tetrahydro-pyran-4-yl)-amine] | 34.5
Fc1ccc(CCN2CCN(c3nc(N4CCC(F)(F)CC4)ns3)CC2)cc1F [Example 10, 1-[2-(3,4-Difluoro-phenyl)-ethyl]-4-[3-(4,4-difluoro-piperidin-1-yl)-[1,2,4]thiadiazol-5-yl]-piperazine] | 12.1
Fc1ccc(CCN2CCN(c3nc(N4CCC(C(F)(F)F)CC4)ns3)CC2)cc1F [Example 13, 1-[2-(3,4-Difluoro-phenyl)-ethyl]-4-[3-(4-trifluoromethyl-piperidin-1-yl)-[1,2,4]thiadiazol-5-yl]-piperazine] | 15.3
Fc1ccc(CCN2CCN(c3nc(N4CCC(F)CC4)ns3)CC2)cc1F [Example 12, 1-[2-(3,4-Difluoro-phenyl)-ethyl]-4-[3-(4-fluoro-piperidin-1-yl)-[1,2,4]thiadiazol-5-yl]-piperazine] | 33.3
FC1CCN(c2nsc(N3CCN(CCc4ccc(Cl)cc4)CC3)n2)CC1 [Example 4, 1-[2-(4-Chloro-phenyl)-ethyl]-4-[3-(4-fluoro-piperidin-1-yl)-[1,2,4]thiadiazol-5-yl]-piperazine] | 84.6
Fc1ccc(CCN2CCN(c3nc(NCC4CC4)ns3)CC2)cc1F [Example 15, Cyclopropylmethyl-(5-{4-[2-(3,4-difluoro-phenyl)-ethyl]-piperazin-1-yl}-[1,2,4]thiadiazol-3-yl)-amine] | 38.4
Clc1ccc(CCN2CCN(c3nc(NCC4CC4)ns3)CC2)cc1 [Example 7, (5-{4-[2-(4-Chloro-phenyl)-ethyl]-piperazin-1-yl}-[1,2,4]thiadiazol-3-yl)-cyclopropylmethyl-amine] | 17.2
Clc1ccc(CCN2CCN(c3nc(N4CCCCC4)ns3)CC2)cc1 [Example 6, 1-[2-(4-Chloro-phenyl)-ethyl]-4-(3-piperidin-1-yl-[1,2,4]thiadiazol-5-yl)-piperazine] | 64.1
Fc1ccc(CCN2CCN(c3nc(N4CCCCC4)ns3)CC2)cc1F [Example 18, 1-[2-(3,4-Difluoro-phenyl)-ethyl]-4-(3-piperidin-1-yl-[1,2,4]thiadiazol-5-yl)-piperazine] | 46.4
COc1cccc(CCN2CCN(c3nc(C4CCCCC4)ns3)CC2)c1 [Example 22, 1-(3-Cyclohexyl-[1,2,4]thiadiazol-5-yl)-4-[2-(3-methoxy-phenyl)-ethyl]-piperazine] | 3
Fc1ccc(CCN2CCN(c3nc(NC4CCCCC4)ns3)CC2)cc1F [Example 17, Cyclohexyl-(5-{4-[2-(3,4-difluoro-phenyl)-ethyl]-piperazin-1-yl}-[1,2,4]thiadiazol-3-yl)-amine] | 3.8
FC(F)(F)C1CCN(c2nsc(N3CCN(CCc4ccc(Cl)cc4)CC3)n2)CC1 [Example 5, 1-[2-(4-Chloro-phenyl)-ethyl]-4-[3-(4-trifluoromethyl-piperidin-1-yl)-[1,2,4]thiadiazol-5-yl]-piperazine] | 47
COc1ccc(CCN2CCN(c3nc(N4CCC(F)(F)CC4)ns3)CC2)cc1 [Example 1, 1-[3-(4,4-Difluoro-piperidin-1-yl)-[1,2,4]thiadiazol-5-yl]-4-[2-(4-methoxy-phenyl)-ethyl]-piperazine] | 0.6
Cc1ccccc1CN1CCN(c2nc(C3CCOCC3)ns2)CC1 [Example 30, 1-(2-Methyl-benzyl)-4-[3-(tetrahydro-pyran-4-yl)-[1,2,4]thiadiazol-5-yl]-piperazine] | 414
CCCCc1nsc(N2CCN(CCc3ccc(OC)cc3)CC2)n1 [Example 23, 1-(3-Butyl-[1,2,4]thiadiazol-5-yl)-4-[2-(4-methoxy-phenyl)-ethyl]-piperazine] | 0.5
COc1ccc(CCN2CCN(c3nc(C4CC4)ns3)CC2)cc1 [Example 24, 1-(3-Cyclopropyl-[1,2,4]thiadiazol-5-yl)-4-[2-(4-methoxy-phenyl)-ethyl]-piperazine] | 44.5
CCCCc1nsc(N2CCN(CCc3cccc(OC)c3)CC2)n1 [Example 25, 1-(3-Butyl-[1,2,4]thiadiazol-5-yl)-4-[2-(3-methoxy-phenyl)-ethyl]-piperazine] | 2.2
Fc1ccc(CCN2CCN(c3nc(N4CCCC4)ns3)CC2)cc1F [Example 14, 1-[2-(3,4-Difluoro-phenyl)-ethyl]-4-(3-pyrrolidin-1-yl-[1,2,4]thiadiazol-5-yl)-piperazine] | 176
COc1ccc(CCN2CCN(c3nc(C4CCOCC4)ns3)CC2)cc1 [Example 28, 1-[2-(4-Methoxy-phenyl)-ethyl]-4-[3-(tetrahydro-pyran-4-yl)[1,2,4]thiadiazol-5-yl]-piperazine] | 33.3
COc1cccc(CCN2CCN(c3nc(C4CC4)ns3)CC2)c1 [Example 26, 1-(3-Cyclopropyl-[1,2,4]thiadiazol-5-yl)-4-[2-(3-methoxy-phenyl)-ethyl]-piperazine] | 410
Fc1ccc(CCN2CCN(c3nc(NC4CCC(C(F)(F)F)CC4)ns3)CC2)cc1F (stereo not drawn) [Example 19, (5-{4-[2-(3,4-Difluoro-phenyl)-ethyl]-piperazin-1-yl}[1,2,4]thiadiazol-3-yl)-(4-trifluoromethyl-cyclohexyl)-amine] | 340
Fc1ccc(CCN2CCN(c3nc(C4CCOCC4)ns3)CC2)cc1F [Example 31, 1-[2-(3,4-Difluoro-phenyl)-ethyl]-4-[3-(tetrahydro-pyran-4-yl)-[1,2,4]thiadiazol-5-yl]-piperazine] | 308
CCCCN(CC)c1nsc(N2CCN(CCc3ccc(F)c(F)c3)CC2)n1 [Example 20, Butyl-(5-{4-[2-(3,4-difluoro-phenyl)-ethyl]-piperazin-1-yl}-[1,2,4]thiadiazol-3-yl)-ethyl-amine] | 709
Clc1ccc(CCN2CCN(c3nc(NC4CCCCC4)ns3)CC2)cc1 [Example 9, (5-{4-[2-(4-Chloro-phenyl)-ethyl]-piperazin-1-yl}-[1,2,4]thiadiazol-3-yl)-cyclohexyl-amine] | 9.4
